The values below are quoted from earlier work in patent US6770729B2, “Polymer compositions containing bioactive agents and methods for their use” (priority 2002, dated 2004).

Each structure is given as a SMILES string.

In this data set the target is avidin (Gallus gallus, UniProt P02701).
Sequence of avidin (P02701 25-152): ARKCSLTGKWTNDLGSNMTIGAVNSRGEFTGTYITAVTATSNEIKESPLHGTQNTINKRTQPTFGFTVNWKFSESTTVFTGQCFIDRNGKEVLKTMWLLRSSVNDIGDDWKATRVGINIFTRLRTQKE

On to `O=C(O)CCCC[C@@H]1SC[C@@H]2NC(=O)N[C@@H]21` [biotin], for which, under “avidin tetramer binds 4 biotin molecules in solution, noncovalent interaction”, the binding constant entry is listed as “about 10^15 M^−1”. For the same compound, the half-life in vivo entry (avidin-biotin interaction, dissociation of the complex) is “about 89 days”.
